Consider eleven molecules from US12043632B2, “6-heteroaryloxy benzimidazoles and azabenzimidazoles as JAK2 inhibitors” (Ajax Therapeutics, Inc., priority 2020, dated 2024).

Each structure is given as a SMILES string. A value given as a limit tells only on which side of the number the result lay.

The target of this assay is T1, JAK2 (JH1domain-catalytic, Y1007F,Y1008F) kinase (Homo sapiens, UniProt O60674, Y1007F/Y1008F).
T1 construct: JAK2 (JH1domain-catalytic, Y1007F,Y1008F) kinase was expressed as N-terminal fusion; made in house; host or cells: transiently transfected HEK293 cells
T1 sequence (O60674 849-1124 Y1007F/Y1008F limits assumed): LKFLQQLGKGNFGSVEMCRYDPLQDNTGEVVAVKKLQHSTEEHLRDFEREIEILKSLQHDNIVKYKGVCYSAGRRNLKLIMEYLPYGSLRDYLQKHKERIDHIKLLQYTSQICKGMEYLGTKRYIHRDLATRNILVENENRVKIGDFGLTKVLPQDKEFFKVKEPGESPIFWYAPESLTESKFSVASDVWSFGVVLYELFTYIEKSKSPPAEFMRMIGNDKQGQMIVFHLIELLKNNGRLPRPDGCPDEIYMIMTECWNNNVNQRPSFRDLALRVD
Nature of the assay: JAK2 JH1 Domain Binding Assay. The settings on record: qPCR readout.

`Cn1c(Nc2ccc(CN3CCC(O)C3)c(C(F)(F)F)c2)nc2ncc(Oc3cnn4ccncc34)c(Cl)c21` (stereo in doubt) [Example I-186, (R)-1-(4-((7-chloro-1-methyl-6-(pyrazolo[1,5-a]pyrazin-3-yloxy)-1H-imidazo[4,5-b]pyridin-2-yl)amino)-2-(trifluoromethyl)benzyl)pyrrolidin-3-ol] came in with a Kd of less than 10 nM.
As for `CNc1cn2ncc(Oc3cnc4nc(Nc5cc(C(F)(F)F)cn([C@H]6CCCOC6)c5=O)n(C)c4c3Cl)c2cn1` (single isomer, unassigned) [Example I-352-a], the Kd was in the range of 10 to 50 nM.
Next, `CNc1nccn2ncc(Oc3cnc4nc(Nc5cc(C(C)(C)C)n([C@@H]6CCN(C)C6)n5)n(C)c4c3Cl)c12` [Example I-252, (R)—N-(5-(tert-butyl)-1-(1-methylpyrrolidin-3-yl)-1H-pyrazol-3-yl)-7-chloro-1-methyl-6-((4-(methylamino)pyrazolo[1,5-a]pyrazin-3-yl)oxy)-1H-imidazo[4,5-b]pyridin-2-amine]: 10 to 50 nM.
The value for `COc1n[nH]c2ncc(Oc3cnc4nc(Nc5cc6n(n5)CCCC6(F)F)n(C)c4c3C#N)cc12` [Example I-378, 2-((4,4-difluoro-4,5,6,7-tetrahydropyrazolo[1,5-a]pyridin-2-yl)amino)-6-((3-methoxy-1H-pyrazolo[3,4-b]pyridin-5-yl)oxy)-1-methyl-1H-imidazo[4,5-b]pyridine-7-carbonitrile] was less than 10 nM; that for `CNc1cn2ncc(Oc3cnc4nc(Nc5cc(O[C@@H]6CCN(C)C6)cc(C(F)(F)F)c5)n(C)c4c3Cl)c2cn1` [Example I-315, (R)-7-chloro-1-methyl-6-((6-(methylamino)pyrazolo[1,5-a]pyrazin-3-yl)oxy)-N-(3-((1-methylpyrrolidin-3-yl)oxy)-5-(trifluoromethyl)phenyl)-1H-imidazo[4,5-b]pyridin-2-amine] was less than 10 nM; that for `Cn1c(Nc2cc(C(C)(C)C)n([C@H]3COC[C@@H]3O)n2)nc2ncc(Oc3cnc4cnc(C5CC5)n4c3)c(C(F)F)c21` (single isomer, unassigned) [Example I-93-a] was 10 to 50 nM.
Next, `CNc1cn2ncc(Oc3cnc4nc(Nc5nn6c(c5F)COC(C)(C)C6)n(C)c4c3Cl)c2cn1` [Example I-309, N-(7-chloro-1-methyl-6-((6-(methylamino)pyrazolo[1,5-a]pyrazin-3-yl)oxy)-1H-imidazo[4,5-b]pyridin-2-yl)-3-fluoro-6,6-dimethyl-6,7-dihydro-4H-pyrazolo[5,1-c][1,4]oxazin-2-amine]: less than 10 nM; `Cn1c(Nc2cc(C(C)(C)C)n(C3COCC3O)n2)nc2ncc(Oc3cnn4ccncc34)c(Cl)c21` (single isomer, unassigned) [Example I-47]: less than 10 nM; `Cn1c(Nc2cc(C(C)(C)C)n([C@H]3CCN(CCF)C3)n2)nc2ncc(Oc3cnn4ccncc34)c(Cl)c21` [Example I-29, (S)—N-(5-(tert-butyl)-1-(1-(2-fluoroethyl)pyrrolidin-3-yl)-1H-pyrazol-3-yl)-7-chloro-1-methyl-6-(pyrazolo[1,5-a]pyrazin-3-yloxy)-1H-imidazo[4,5-b]pyridin-2-amine]: less than 10 nM.
With `Cn1cc(C(F)(F)F)cc(Nc2nc3ncc(Oc4cnn5ccnc(NCCN6CCOCC6)c45)c(Cl)c3n2C)c1=O` [Example I-248, 3-((7-chloro-1-methyl-6-((4-((2-morpholinoethyl)amino)pyrazolo[1,5-a]pyrazin-3-yl)oxy)-1H-imidazo[4,5-b]pyridin-2-yl)amino)-1-methyl-5-(trifluoromethyl)pyridin-2(1H)-one], the Kd is less than 10 nM.
Next, `Cn1c(Nc2cc(C(C)(C)C)n(C3CC4(COC4)C3)n2)nc2ncc(Oc3cnn4ccnc4c3)c(Cl)c21` [Example I-33, N-(5-(tert-butyl)-1-(2-oxaspiro[3.3]heptan-6-yl)-1H-pyrazol-3-yl)-7-chloro-6-(imidazo[1,2-b]pyridazin-7-yloxy)-1-methyl-1H-imidazo[4,5-b]pyridin-2-amine]: 10 to 50 nM.
